Data from ChEMBL document CHEMBL3351853, “Discovery of small molecular inhibitors targeting HIV-1 gp120-CD4 interaction drived from BMS-378806” (Eur J Med Chem, 2014).
pEC50: −log10 of the molar value.

Assay: Inhibition of HIV-1 gp120/CD4 interaction

pEC50: 8.40
SMILES: C[C@@H]1CN(C(=O)c2ccccc2)CCN1C(=O)C(=O)c1c[nH]c2ccccc12
